Source: patent publication US8399511B2, “Two types of crystalline of pinocembrin, their preparation and their use for manufacture of pharmaceutical compositions” (CSPC Zhongqi Pharmaceutical Technology (Shijiazhuang) Co., …, priority 2008, dated 2013)

Assay: In vivo absorption and blood concentration after oral administration of pinocembrin crystalline forms
Set-up: species or system SD rats
Settings: for Blood concentration of pinocembrin: fasted SD rats, arterial blood, HPLC, group average, 50 mg/kg
Procedure: • 1. Monocrystal X-ray analysis • Instrument: MAC DIP-2030K area detector • Test condition: tube voltage: 50 KV, tube flow: 80 mA, ω scanning, MoKα, 2θ≦50.0°, scan range: 0-180°, pivot angle: 6°, step: 6°, scan rate: 1.8°/min. • 2. Powder X-ray analysis • Instrument: Rigaku D/max 2550 powder X-ray diffractometer • Test conditions: voltage: 40 KV, current: 150 mA, scan rate: 8°/min. • 3. DSC analysis • Instrument type: Seiko Instruments Inc. Differential Scanning Calorimeter • Test conditions: purge gas: N2, heating rate: 10° C. /min. • Temperature range: 25-250° C. • 4. IR absorbance spectra • Instrument Nicolet FT-IR spectrometer: IMPACT 400 • Test conditions: KBr pellet • 5. HPCL analysis • Instrument: SHIMADZU LC-10Avp high performance liquid chromatography, SPD-M10Avp diode array detector, CLASS-VP chromatography data system; column: Alltch C18(5μ, 150×4.6 mm); test conditions: column temperature: room temperature; wavelength: 290 nm; mobile phase: methanol/phosphate saline pH 3.0 (64/36); flow rate : 1.0 mL/min; injection volume: 20 μL; injection concentration: 500.0 μg/mL Preparation 1: Synthesis of Pinocembrin Sample
18 of SD rats, female and male each half, with body weight of 230˜250 g, were randomized into 3 groups, with 6 rats each group and female half. After 10 hours of fasting but free water intake, the rats were administrated with pinocembrin solid active ingredient powder of α, β or 1:1 (α+β) mixed crystalline forms, at a dose of 50 mg/kg to stomach. Then the arterial blood samples at different times were taken and the contents of pinocembrin were determined.

[1] = 10 min after oral (to stomach) 50 mg/kg solid powder
[2] = 20 min after oral (to stomach) 50 mg/kg solid powder
[3] = 30 min after oral (to stomach) 50 mg/kg solid powder
[4] = 40 min after oral (to stomach) 50 mg/kg solid powder

Compound | Blood concentration of pinocembrin [1] [peak area value] | Blood concentration of pinocembrin [2] [peak area value] | Blood concentration of pinocembrin [3] [peak area value] | Blood concentration of pinocembrin [4] [peak area value] | Blood concentration compared with β crystalline form (same dosage (50 mg/kg) by oral administration, rats) | Blood concentration of pinocembrin (10 min after oral (to stomach) 50 mg/kg solid powder, listed as β crystalline from) [peak area value] | Blood concentration of pinocembrin (20 min after oral (to stomach) 50 mg/kg solid powder, listed as β crystalline from) [peak area value] | Blood concentration of pinocembrin (30 min after oral (to stomach) 50 mg/kg solid powder, listed as β crystalline from) [peak area value] | Blood concentration of pinocembrin (40 min after oral (to stomach) 50 mg/kg solid powder, listed as β crystalline from) [peak area value] | Uptake rate by organism relative to α crystalline form (rat, in vivo) [times]
O=C1C[C@@H](c2ccccc2)Oc2cc(O)cc(O)c21 (stereo in doubt) [1:1 (α + β) crystalline forms, 5,7-dihydroxy-2-phenyl-4-chromanone] | 8.5 | 15.6 | 7.9 | 7.1 |  |  |  |  |  | 
O=C1C[C@@H](c2ccccc2)Oc2cc(O)cc(O)c21 (stereo in doubt) [α crystalline form, 5,7-dihydroxy-2-phenyl-4-chromanone] | 3.8 | 9.7 | 4.4 | 3.5 | obviously lower |  |  |  |  | 
O=C1C[C@@H](c2ccccc2)Oc2cc(O)cc(O)c21 (stereo in doubt) [β crystalline form, 5,7-dihydroxy-2-phenyl-4-chromanone] |  |  |  |  |  | 13.2 | 48.6 | 14.6 | 14.2 | ≥ 2
